According to patent US7629375B2, “Cytoprotective compounds, pharmaceutical and cosmetic formulations, and methods” (Johnson & Johnson Consumer Companies, Inc., priority 2001, dated 2009):

System: neonatal cardiomyocytes
Experiment: Myocyte calcium-contractility assay
Format: cell-based, rat
Settings: anaerobic chamber 16 hours in DMEM 1 mM glucose, reoxygenation two hours
Procedure: A. Isolation and Culture of Primary Neonate Myocytes.
The following materials are employed: • 10× Heart Dissection Solution (HDS) contains the following components (g/l) in tissue grade water: NaCl, 68; HEPES, 47.6; NaH2PO4, 2; Glucose, 10; KCl, 4; MgSO4, 1, pH adjusted to 7.4. Prior to filter sterilization of diluted (1×HDS) solution, 10 mg phenol red is added to each 500 milliliters of medium. • Transferrin and Bovine Insulin (available from Life Technologies) are resuspended at a concentration of 4 mg/ml in tissue culture grade water. • DMEM-F12—DMEM/F12, powder, 1:1 containing glutamine and pyridoxine hydrochloride (available from Life Technologies). To one liter equivalent of the powder is added 2.43 g of sodium bicarbonate and 10 ml of 100× Penicillin/Streptomycin in 950 ml of tissue culture grade water with stirring. The pH is adjusted to 7.2 with 1M HCl and volume adjusted to 1 liter. The solution is filter sterilized, followed by the addition of 2.5 ml of 4 mg/ml Transferrin, 250 μl 4 mg/ml Insulin and 30.7 mg of bromodeoxyuridine. • DMEM-F12-5% FBS is also prepared for pre-coating the tissue culture plates and initial suspension of the cardiomyocyte pellet. • Collagenase solution-57.1 mg of collagenase is resuspended in 140 ml 1×HDS.
Tissue culture ware is pre-coated with DMEM-F12-5% FBS by incubating […] per well of a 96-well plate and 0.5 ml per 24-well plate at 37° C.
Two-day old rat pups are removed from their mothers and placed in a sterile container. Pups are dipped quickly into 70% alcohol, then decapitated and the body placed in an empty sterile tissue culture dish. An incision is made starting at the neck and progressing towards the belly, cutting through the sternum. The heart is removed and placed in a tissue culture dishes containing 1×HDS. The atria are trimmed, and the remaining ventricles are placed into a separate tissue culture dish containing 1×HDS, where they are sectioned into 3-4 pieces each. Ventricles are then transferred to a sterile 250 ml glass flask and the 1×HDS is removed. Twenty milliliters of pre-warmed collagenase solution is added to the ventricles, followed by incubation at 37° C. with shaking. After 20 minutes, the collagenase solution is removed and replaced with 20 ml fresh pre-warmed collagenase. Incubation is continued for an additional 20 minutes. At the end of the incubation, any tissue chunks are allowed to settle prior to removing the collagenase (containing the isolated cardiomyocytes) from the disrupted tissue pieces. The isolated myocytes are added to a 50 ml Falcon tube containing 2 ml Fetal Bovine Serum (FBS). The remaining tissue pieces are subjected to a second digestion by adding 20 ml fresh pre-warmed collagenase and incubating as above for 20 minutes. This second digest is then centrifuged at 1000 rpm for 5 minutes (tabletop centrifuge). The resulting supernatant is discarded, and the cell pellet is suspended with 4 ml FBS. The resulting cell suspension is placed in the incubator at 37° C. This step is repeated several additional times to harvest additional material.
Percoll gradients are prepared by adding 2.5 ml of 10×HDS to 22.5 ml of Percoll (Life Technologies) with mixing (Percoll Stock). Top Gradient solution (11 ml Percoll Stock and 14 ml 1×HDS) and Bottom Gradient solution (13 ml Percoll Stock and 7 ml 1×HDS) are prepared. Four milliliters of the Top Gradient solution is transferred into 6×15 ml sterile Falcon tubes. Three milliliters of the Bottom Gradient solution is placed in each tube by inserting a serological pipette to the bottom of the tube and slowly adding the liquid.
All the digests (6) are pooled in one 50 ml Falcon tube and centrifuged on a tabletop centrifuge at 1000 rpm for 10 minutes. The supernatant is discarded, and the cell pellet is resuspended in 12 ml of 1×HDS. Two milliliters of the cell suspension is added to the top of each gradient. […]

Compound | calcium transients (Fluo-4) in amounts indicative of ability guard against ischemic damage and maintain contractile function
COc1cc(C=Cc2ccc(C#N)cc2)ccc1O [4-[2-(4-hydroxy-3-methoxy-phenyl)-vinyl]-benzonitrile] | presence of calcium transients
COC(=O)c1ccc(C=Cc2ccc(C)s2)cc1 [4-[2-(5-methyl-thiophen-2-yl)-vinyl]-benzoic acid methyl ester] | presence of calcium transients
COCOc1cc(C=Cc2ccc(C(=O)OC)cc2)cc(CC=C(C)C)c1OCOC [4-{2-[3,4-bis-methoxymethoxy-5-(3-methyl-but-2-enyl)-phenyl]-vinyl}-benzoic acid methyl ester] | presence of calcium transients
COCOc1cc(C=Cc2ccc(C#N)cc2)cc(OCOC)c1CC=C(C)C [4-{2-[3,5-bis-methoxymethoxy-4-(3-methyl-but-2-enyl)-phenyl]-vinyl}-benzonitrile] | presence of calcium transients
COC(=O)c1ccc(C=Cc2cc(CC=C(C)CCC=C(C)C)c(O)c(OC)c2)cc1 [4-{2-[3-(3,7-dimethyl-octa-2,6-dienyl)-4-hydroxy-5-methoxy-phenyl]-vinyl}-benzoic acid methyl ester] | presence of calcium transients
COc1cc(C=Cc2ccc(C#N)cc2)cc(CC=C(C)CCC=C(C)C)c1O [4-{2-[3-(3,7-dimethyl-octa-2,6-dienyl)-4-hydroxy-5-methoxy-phenyl]-vinyl}-benzonitrile] | presence of calcium transients
COCOc1c(CC=C(C)CCC=C(C)C)cc(C=Cc2ccc(C#N)cc2)cc1OC [4-{2-[3-(3,7-dimethyl-octa-2,6-dienyl)-5-methoxy-4-methoxymethoxy-phenyl]-vinyl}-benzonitrile] | presence of calcium transients
COCOc1c(CC=C(C)C)cc(C=Cc2ccc(C(=O)OC)cc2)cc1OC [4-{2-[3-methoxy-4-methoxymethoxy-5-(3-methyl-but-2-enyl)-phenyl]-vinyl}-benzoic acid methyl ester] | presence of calcium transients
COCOc1cc(C=Cc2ccc(C(=O)OC)cc2)cc(OCOC)c1CC=C(C)CCC=C(C)C [4-{2-[4-(3,7-dimethyl-octa-2,6-dienyl)-3,5-bis-methoxymethoxy-phenyl]-vinyl}-benzoic acid methyl ester] | presence of calcium transients
COCOc1cc(C=Cc2ccc(C#N)cc2)cc(OCOC)c1CC=C(C)CCC=C(C)C [4-{2-[4-(3,7-dimethyl-octa-2,6-dienyl)-3,5-bis-methoxymethoxy-phenyl]-vinyl}-benzonitrile] | presence of calcium transients
Oc1cc(-c2ccc(C=Cc3ccc(O)c(O)c3)cc2)n[nH]1 [4-{2-[4-(5-hydroxy-1H-pyrazol-3-yl)-phenyl]-vinyl}-benzene-1,2-diol] | presence of calcium transients
COCOc1ccc(C=C2SC(=O)NC2=O)cc1OCOC [5-(3,4-bis-methoxymethoxy-benzylidene)-thiazolidine-2,4-dione] | presence of calcium transients
O=C1NC(=O)C(=Cc2ccc(O)c(O)c2)S1 [5-(3,4-dihydroxy-benzylidene)-thiazolidine-2,4-dione] | presence of calcium transients
COCOc1cc(C=Cc2cc(OC)c(OCOC)c(OC)c2)cc(OCOC)c1CC=C(C)C [5-[2-(3,5-dimethoxy-4-methoxymethoxy-phenyl)-vinyl]-2-(3-methyl-but-2-enyl)-1,3-(bis-methoxymethoxy)-benzene] | presence of calcium transients
COCOC(=O)c1cc(C=Cc2ccc(C(=O)OC)cc2)ccc1OCOC [5-[2-(4-methoxycarbonyl-phenyl)-vinyl]-2-methoxymethoxy-benzoic acid methoxymethyl ester] | presence of calcium transients
O=[N+]([O-])c1ccc(C=Cc2cc(O)cc(O)c2)cc1 [5-[2-(4-nitro-phenyl)-vinyl]-benzene-1,3-diol] | presence of calcium transients
Cc1c(C)c2c(c(COc3ccc(C=C4SC(=O)NC4=O)cc3)c1O)CCC(C)(CCCC(C)CCCC(C)CCCC(C)C)O2 (stereo not shown) [5-{4-[6-hydroxy-2,7,8-trimethyl-2-(4,8,12-trimethyl-tridecyl)-chroman-5-ylmethoxy]-benzylidene}-thiazolidine-2,4-dione] | presence of calcium transients
COCOc1ccc(C=Cc2ccc(N(C)C)cc2)cc1OCOC [{4-[2-(3,4-bis-methoxymethoxy-phenyl)-vinyl]-phenyl}-dimethyl-amine] | presence of calcium transients
CNc1ccc(C=Cc2ccc(OCOC)c(OCOC)c2)cc1 [{4-[2-(3,4-bis-methoxymethoxy-phenyl)-vinyl]-phenyl}-methyl-amine] | presence of calcium transients
